# Test: gradient 5% acetonitrile 3 min, to 50% in 2 min, to 85% in 15 min, held 3 min, 100 µL/min
# Conditions: column: Zorbax Extend-C18 2.1 x 50 mm; eluents: water / acetonitrile, 0.1% formic acid
# Method in brief: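 A Zorbax Extend-C18 column (2.1 × 50 mm, 1.8 μm) run at 100 μL/min with water and acetonitrile, both containing 0.1% formic acid, separated mixtures of ~100 pure standards. The HPLC was coupled to a quadrupole time-of-flight mass spectrometer operated in positive and negative ionization mode, with dead and dwell volumes of 40 μL and 900 μL. Each retention time was taken from a computationally picked adduct peak that was then manually inspected.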
row,SMILES,RP-LC retention time [s]
1,COc1ccc(NS(=O)(=O)c2cc(-c3cc(C(F)(F)F)on3)sc2C)c(OC)c1,1130
2,CCN1C(=O)c2cccnc2Sc2cc(NC(=O)COc3cccc(Cl)c3)ccc21,916
3,CS(=O)(=O)c1ccc(Nc2nc(C(=O)Nc3ccc(F)c(Cl)c3)cs2)cc1,843
4,O=C(c1cccc(-n2cnnn2)c1)N1CCC(c2nnc(-c3ccco3)s2)CC1,651
5,COc1ccc(C2CC(=O)N(c3ccc(C)c(C)c3)C(=O)C2)cc1OC,893
6,O=C(c1cccc(Br)c1)N1CCN(C(=O)N2CCOCC2)CC1,631
7,CC(=O)Nc1ccc2c(c1)N(C(=O)c1cccs1)CCC2,695
8,COCCNC(=O)c1nn(-c2ccc(F)cc2)nc1CO,730
9,Cn1ncc(N2CCCC(CC(=O)N3CCC4(CC3)OCCO4)C2)cc1=O (stereo not drawn),625
10,O=C(Nc1ccc2c(c1)OCO2)C1CCN(S(=O)(=O)c2cc(C(=O)N3CCCC3)cs2)CC1,770
11,O=c1c2nc(-c3ccc(F)cc3F)cn2ccn1-c1ccc(Cl)cc1,921
12,COc1ccc(-c2nc3cnc(Br)cn3c2Nc2ccc3c(c2)OCCO3)cc1,900
13,COCCN1C(=O)CC[C@]2(C(=O)NCc3cc(F)ccc3F)CCCC[C@@H]12,724
14,COc1cc2c(cc1OC)C(C(=O)NCCN1CCOCC1)C1c3ccccc3CCN1C2=O (stereo not drawn),595
15,CC1(C(=O)NC2CCN(c3cc(N4CCOCC4)cnn3)C2)CCCCC1 (stereo not drawn),569
16,COc1cc(Cl)c(NS(=O)(=O)c2c(C)sc(C)c2-c2cc(C(F)(F)F)on2)c(OC)c1,1190
17,COc1ccc(C(=O)N2CCCC2COc2ccc(C(=O)N3CCCC3)cc2)cc1 (stereo not drawn),800
18,CCNC(=O)C1CCCN(c2nc3ncn(CC(=O)NC4CCCC4)c(=O)c3s2)C1 (stereo not drawn),637
19,COc1ccc(CCc2nc3nccc(-c4ccc(OC)cc4)n3n2)cc1,943

row,SMILES,RP-LC retention time [s]
1,CCn1c(N2CCCC(C(=O)NCc3cccc(C)c3)C2)cc(=O)n(C)c1=O (stereo not drawn),824
2,N#Cc1cccc(S(=O)(=O)N2CCC(c3nnc(C(=O)Nc4ccc5c(c4)OCO5)s3)CC2)c1,951
3,CN(C)c1ccc(CNC(=O)C2CCN(c3cncnc3N3CCCC3)CC2)cc1,555
4,COc1ccc(NC(=O)CCNc2cnc3cnccn23)c(C)c1,576
5,COCCc1noc(-c2cnc3nc(C)ccc3c2Nc2cccc(F)c2)n1,729
6,CN1CCCCCCN(C(=O)c2cccs2)[C@H]2CCC[C@H]2C1=O,826
7,COc1ccc(Cl)cc1NC(=O)CSc1nnc2c3cc(-c4ccc(C)cc4)nn3ccn12,1040
8,COc1cc(Nc2c(C(=O)N3CCCC3)cnc3nc(C)ccc23)cc(OC)c1OC,592
9,CCCCOc1ccc(-c2ccc(=O)n(Cc3nc(-c4ccccc4Br)no3)n2)cc1,1260
10,Cc1nnc2cc(N3CCN(C(=O)Nc4ccc(F)cc4F)CC3)cnn12,597
11,CCn1cc(-c2ccc(Cl)cc2)cc1C(=O)N1CCC(N2CCCCC2)CC1,713
12,O=C(Cn1cnc2nc(N3CCC(C(=O)NC4CC4)CC3)sc2c1=O)Nc1ccc2c(c1)OCO2,637
13,Cc1cccc(NC(=O)Cn2c(=O)n(-c3ccc(F)cc3)c3ncccc32)c1C,880
14,CCOC(=O)Cc1ccc(NC(=O)NC2CCN(c3ccc(C)c(C)c3)C2=O)cc1 (stereo not drawn),877
15,Cc1nc(C)c(C(=O)NCc2ccc3c(c2)ncn3C(C)C)s1,568
16,O=C(CN1CC=C(c2cnn(-c3ccc(F)cc3)c2)CC1)N1CCCCC1,661
17,COCCNS(=O)(=O)c1cc(-c2nc(C)cs2)n(CC(=O)N2CCCCC2)c1,755
18,CC(C)CNC(=O)C1CCN(c2nc3ccsc3c(=O)n2-c2ccccc2)CC1,786
19,COc1ccc(OC)c(CCNC(=O)c2c(N3CCCC3=O)c3cc(F)ccc3n2C)c1,919

row,SMILES,RP-LC retention time [s]
1,CCN(CC)C(=O)c1ccc2c(c1)N(CC(=O)NC1CCCCCC1)C(=O)CO2,768
2,CCc1c(C2CCN(C(=O)c3ccnn3C)CC2)noc1N,596
3,CCCN1C(=O)c2cc(S(=O)(=O)N3CCCCCC3)ccc2Oc2cccnc21,1180
4,O=C(c1ccc([N+](=O)[O-])cc1)N(C(=O)N1CCCCC1)c1cccc(Cl)c1,953
5,Cc1c(C2CCN(C(=O)c3ccc(Br)cc3)CC2)noc1N,728
6,Cc1ccc(S(=O)(=O)N2CCc3nc[nH]c3C2)cc1,591
7,COc1ccc(CCc2nc3nccc(-c4ccncc4)n3n2)cc1,697
8,CC1=C(c2ccc(C)c(C)c2)S(=O)(=O)N=C1N1CCCN(C(=O)CC2CCCC2)CC1,967
9,CCCCNC(=O)CCc1nc(N2CCCCCC2)c2c(C)noc2n1,842
10,O=C(Cn1cnc2nc(N3CCC(C(=O)NC4CC4)CC3)sc2c1=O)NCc1cccs1,618
11,CC(=O)Nc1ccc(SCCCC(=O)Nc2ccc3c(c2)OCCO3)nn1,634
12,CC(Oc1ccc(=O)n(-c2ccc(F)cc2)n1)C(=O)Nc1ccc(F)c(F)c1 (stereo not drawn),816
13,CCOC(=O)c1ccc(NC(=O)C2CCCN(c3nnc(C)c4c(C)n(-c5ccccc5)nc34)C2)cc1 (stereo not drawn),797
14,O=C(c1nnn2c1COC(c1ccc(Cl)cc1)C2)N1CCSCC1 (stereo not drawn),949
15,COc1cccc(NS(=O)(=O)c2cc(-c3[nH]ncc3C(=O)N3CCCCC3)oc2C)c1,721
16,Cc1ccc(CNC(=O)C2(C)CCCN(C(=O)Nc3cccc(Cl)c3C)C2)cc1 (stereo not drawn),1060
17,COc1cc(OC)cc(-c2noc(-c3cn(C)c4ccc(C)cc4c3=O)n2)c1,894
18,CCOc1ccccc1N1CCN(C(=O)CN2CCN(Cc3ccc(F)cc3)C2=O)CC1,833

# The remaining lines, values ahead:
row,RP-LC retention time [s],SMILES
1,742,CCn1cnc2ccc(-c3noc(-c4ccccc4OC)n3)cc21
2,742,Cc1ccc(Nc2nc(-c3cccnc3)nc3ccccc23)cc1
3,723,Cc1cccc(NC(=O)NCC(c2cccnc2)c2cn(C)c3ccccc23)c1 (stereo not drawn)
4,650,c1ccc(-c2ccc3c(c2)NCCN3)cc1
5,1290,CCCCn1c(=O)c2ccccc2n(Cc2nc(-c3ccc(F)c(Cl)c3)no2)c1=O
6,854,O=C(CSc1ccc(-c2ccc3c(c2)OCO3)nn1)c1cccs1
7,628,CN(CCOc1ccc(CC2SC(=O)NC2=O)cc1)c1ccccn1 (stereo not drawn)
8,584,Cc1ccc2[nH]c(=O)c(CCC(=O)NCc3cccnc3)cc2c1
9,650,CC(C)N(C(=O)CSc1nc2ccccc2[nH]1)c1ccccc1
10,772,c1ccc(N2CCN(Cc3nc(-c4ccc(N5CCOCC5)nc4)no3)CC2)cc1
11,794,O=C(CCn1cnc2cc(-c3noc(/C=C/c4ccccc4Cl)n3)ccc21)N1CCOCC1
12,732,CC(=O)c1cccc(NC(=O)N2CCN(Cc3ccccc3)c3ncccc32)c1
13,907,Cc1cccc(-c2nocc2CCC(=O)NCc2ccccc2)c1
14,845,O=C(Nc1ccccc1-n1cccc1)c1cn(-c2ccc(F)cc2)nn1
15,730,COc1ccc(-c2cn3c(CC(=O)N4CCN(c5ccccc5)CC4)csc3n2)cc1OC
16,837,O=C(Nc1ccccc1)N1CCC(OCc2ccccc2)C1 (stereo not drawn)

row,RP-LC retention time [s],SMILES
1,732,COC(=O)c1ccccc1Nc1c(-c2ccc(OC)c(OC)c2)nc2cnccn12
2,1050,CCc1nn2c(CNS(=O)(=O)c3ccc(Cl)cc3C)c(-c3ccccc3)nc2s1
3,849,COc1cc(OC)c(NC(=O)Cn2ccn3nc(-c4ccccc4)c(CO)c3c2=O)cc1Cl
4,833,CCOC(=O)CNc1nc(-c2cccc([N+](=O)[O-])c2)nc2ccccc12
5,995,CC(C)(C)NC(=O)NC1CCN(c2nc3cccnc3n(Cc3ccccc3)c2=O)CC1
6,733,O=S(=O)(c1cccc(F)c1)N1CC(F)(F)C[C@H]1CN1CCc2ccccc2C1
7,815,Cc1ccc(C(=O)N2CCC3(C2)C(=O)N(C)c2ccccc23)cc1F (stereo not drawn)
8,721,O=C1NC2(CCN(C(=O)Nc3ccccc3)CC2)Oc2ccccc21
9,1020,Cc1ccc(NC(=O)N2CCc3nc(-c4ccc(F)cc4)ncc3C2)cc1C
10,954,O=C(CCn1nnc2cc(-c3noc(/C=C/c4ccccc4)n3)ccc21)N1CCCC1
11,887,COc1ccccc1Oc1ccc(S(=O)(=O)Nc2cccc(C(C)=O)c2)cc1
12,1160,O=C(Nc1ccccc1)N1CC(Oc2cccc(-c3nc(-c4ccccc4)no3)c2)C1
13,1160,CCOc1cccc(-c2noc(Cn3c(=O)n(Cc4ccccc4)c(=O)c4sccc43)n2)c1
14,888,COc1ccccc1-c1nc2nccc(-c3ccc4c(c3)OCCCO4)n2n1
15,596,O=C(NCC1(c2cccs2)CCOCC1)c1nc2ccccc2s1
16,626,c1ccc2c(OCc3nc4ccccc4[nH]3)cccc2c1
